Results published in patent US20180327367A1, “MACROCYCLIC BROAD SPECTRUM ANTIBIOTICS” (priority 2015, published 2018).
In brackets after ≈: the same amount, converted by molar mass. Like-named read-outs stand apart in the source and are kept apart here.

Key:
[1] = biological target: T1, SpsB (Staphylococcus aureus signal peptidase) (Staphylococcus aureus, UniProt P0A070); assay: cell-based; type: biochemical; settings: SpsB IC50, whole-cell S. aureus (USA300 background, overexpressing SpsB) as SpsB source; fluorogenic peptide substrate, kinetic read 30 min
T1 construct: This assay uses a suspension of Staphylococcus aureus cells as a source of SpsB instead of recombinant SpsB protein; endogenous in cells; host or cells: S. aureus, USA300 background, overexpressing SpsB (whole-cell suspension from frozen pellets)
Method in brief: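 Whole S. aureus cells (USA300, overexpressing SpsB) in PBS with MgCl2, CaCl2 and 0.1% Tween-80 served as enzyme source, mixed with 20 μM stock of (Dabcyl)βAla-KPAKAAE(Edans) substrate before use. Fluorescence (ex 340/em 490 nm) read kinetically over 30 min. IC50 from reaction rate versus 11-point inhibitor concentration.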

[2] = system: Escherichia coli MC4100 harboring the IMP4213 (E. coli IMP); assay: microbe, parasite or virus in culture; type: cell-based; settings: Escherichia coli, 22 h
Method in brief: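 Colonies grown 20 hours at 35° C were suspended in cation-adjusted Mueller Hinton Broth with 0.002% Tween-80. Cells were then added to 2-fold compound dilutions starting at 4 or 0.5 μg/mL, at OD600 0.0005.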

[3] = system: Escherichia coli strain ATCC 25922; assay: Neutropenic thigh infection model; type: in vivo; settings: neutropenic CD-1 mice, E. coli ATCC 25922, infusion 23 hours, 24 hours post infection, FIG. 1
Method: The ability of a compound to inhibit an infection of a bacterial pathogen can be measured using a murine neutropenic thigh infection model. The reduction of bacterial burden is a measure of antibacterial activity in vivo.
Jugular vein cannulated CD-1 mice were subjected to induced neutropenia (<100 cells/mm^3) by injecting 150 mg/kg and 100 mg/kg cyclophosphamide at day −5 and day −2 respectively. At day −1, saline was infused at […] for 12 hours using Harvard Apparatus PHD 2000 Infusion pumps. At day 0, mice were infected in the thigh muscle with 1×10^5 CFU/50 μL of Escherichia coli strain ATCC 25922. […]
At 24 hours post infection, bacterial burden in the thigh muscle was determined by plating the tissue homogenate in serial dilutions on blood agar plates.

[4] = system: Escherichia coli ATCC 25922; assay: Minimum inhibitory concentration, broth micro-dilution (CLSI), E. coli; type: cell-based; settings: Escherichia coli, ATCC25922, 22 h
[5] = system: Methicillin Resistant Staphylococcus aureus strain USA 300, NRS384; assay: Minimum inhibitory concentration, broth micro-dilution (CLSI), S. aureus; type: cell-based; settings: Staphylococcus aureus, MRSA / NRS 384 / USA300, 22 h
Method in brief: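 Ten-point 2-fold series began at 4 μg/mL in protocol 2 and 0.5 μg/mL in protocol 3, in cation-adjusted MHB plus 0.002% Tween-80. Bacteria added to OD600 0.0005 final and incubated at 35° C for 22 hours per CLSI microdilution.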

[6] = read-out: MIC (μg/mL) E. coli IMP, E. coli MC4100 IMP4213, increased outer-membrane permeability, 35° C., 22 hours
[7] = E. coli ATCC 25922, 35° C., 22 hours, read-out: MIC (μg/mL) E. coli
[8] = MRSA USA 300 NRS384, 35° C., 22 hours, read-out: MIC (μg/mL) S. aureus
[9] = read-out: MIC (μg/mL) E. coli, E. coli ATCC 25922, 35° C., 22 hours
[10] = read-out: MIC (μg/mL) S. aureus, MRSA USA 300 NRS384, 35° C., 22 hours

T1 sequence (P0A070 whole entry): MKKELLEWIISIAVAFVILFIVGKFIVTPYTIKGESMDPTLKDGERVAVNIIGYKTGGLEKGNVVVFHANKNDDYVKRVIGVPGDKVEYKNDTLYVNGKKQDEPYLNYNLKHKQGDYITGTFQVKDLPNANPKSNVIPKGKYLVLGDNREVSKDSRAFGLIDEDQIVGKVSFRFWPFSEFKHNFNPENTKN

SMILES: CCCCc1ccc(-c2ccc(C(=O)N[C@@H](CCCN)C(=O)N(C)[C@@H]3C(=O)N[C@@H](C)C(=O)N[C@H](C(=O)NCC#N)Cc4ccc(OCCN)c(c4)-c4cc3ccc4OCCN)cc2)cc1 [Compound 135]
- IC50 [1]: 0.54 nM
- MIC [2, 6]: 0.023 µg/mL (≈ 0.0259 µM)
- bacterial burden in the thigh muscle [3]: dose-dependent reduction in bacterial burden
- MIC [4, 7]: 0.22 µg/mL (≈ 0.248 µM)
- MIC [5, 8]: 0.052 µg/mL (≈ 0.0586 µM)

SMILES: CCCCCCCCc1ccc(C(=O)N[C@@H](CCCCN)C(=O)N(C)[C@@H]2C(=O)N[C@@H](C)C(=O)N[C@H](C(=O)NCC#N)Cc3ccc(OC)c(c3)-c3cc2ccc3OC)cc1 [Compound 470]
- IC50 [1]: 24 nM
- MIC [2, 6]: 0.5 µg/mL (≈ 0.607 µM)
- MIC [4, 7]: > 64 µg/mL
- MIC [5, 8]: 3 µg/mL (≈ 3.64 µM)

SMILES: CCCCCCCCc1ccc(C(=O)N[C@@H](CCCN)C(=O)N(C)[C@@H]2C(=O)N[C@@H](C)C(=O)N[C@H](C(=O)NCC#N)Cc3ccc(OC)c(c3)-c3cc2ccc3OC)c(OC)c1 [Compound 473]
- IC50 [1]: 39 nM
- MIC [2, 6]: 0.25 µg/mL (≈ 0.298 µM)
- MIC [4, 7]: > 64 µg/mL
- MIC [5, 8]: 1.5 µg/mL (≈ 1.79 µM)

SMILES: CCCCCCCCCCCCCC(=O)N(C)[C@@H]1C(=O)N[C@@H](C)C(=O)N[C@H](C(=O)NCC#N)Cc2ccc(OCCN)c(c2)-c2cc1ccc2OCCN [Compound 475]
- IC50 [1]: 18 nM
- MIC [2, 6]: 0.5 µg/mL (≈ 0.668 µM)
- MIC [4, 7]: 6 µg/mL (≈ 8.02 µM)
- MIC [5, 8]: 1 µg/mL (≈ 1.34 µM)

SMILES: CCCCCCCCc1ccc(C(=O)N(C)[C@@H]2C(=O)N[C@@H](C)C(=O)N[C@H](C(=O)NCC#N)Cc3ccc(OCCN)c(c3)-c3cc2ccc3OCCN)cc1 [Compound 476]
- IC50 [1]: 86 nM
- MIC [2, 6]: 8 µg/mL (≈ 10.6 µM)
- MIC [4, 7]: 32 µg/mL (≈ 42.4 µM)
- MIC [5, 8]: 2 µg/mL (≈ 2.65 µM)

SMILES: CCCCc1ccc(-c2ccc(C(=O)N[C@@H](CC3CCNCC3)C(=O)N(C)[C@@H]3C(=O)N[C@@H](C)C(=O)N[C@H](C(=O)NCC#N)Cc4ccc(OCCN)c(c4)-c4cc3ccc4OCCN)cc2)cc1 [Compound 477]
- IC50 [1]: 0.68 nM
- MIC [2, 6]: 0.063 µg/mL (≈ 0.0679 µM)
- MIC [4, 7]: 4 µg/mL (≈ 4.31 µM)
- MIC [5, 8]: 0.063 µg/mL (≈ 0.0679 µM)

SMILES: CCCCc1ccc(-c2ccc(C(=O)N[C@@H](Cc3c[nH]cn3)C(=O)N(C)[C@@H]3C(=O)N[C@@H](C)C(=O)N[C@H](C(=O)NCC#N)Cc4ccc(OCCN)c(c4)-c4cc3ccc4OCCN)cc2)cc1 [Compound 478]
- IC50 [1]: 1.5 nM
- MIC [2, 6]: 0.19 µg/mL (≈ 0.209 µM)
- MIC [4, 7]: 6 µg/mL (≈ 6.59 µM)
- MIC [5, 8]: 0.19 µg/mL (≈ 0.209 µM)

SMILES: CCCCCCc1ccc(C(=O)N2C[C@@H](N)CC2C(=O)N(C)[C@@H]2C(=O)N[C@@H](C)C(=O)N[C@H](C(=O)NCC#N)Cc3ccc(OCCN)c(c3)-c3cc2ccc3OCCN)c(C)c1 (some centres unmarked) [Compound 480]
- IC50 [1]: 0.92 nM
- MIC [2, 6]: 0.012 µg/mL (≈ 0.0141 µM)
- MIC [4, 7]: 0.5 µg/mL (≈ 0.587 µM)
- MIC [5, 8]: 0.19 µg/mL (≈ 0.223 µM)

SMILES: CCCCCCCCCCCCCC(=O)N1C[C@@H](N)CC1C(=O)N(C)[C@@H]1C(=O)N[C@@H](C)C(=O)N[C@H](C(=O)NCC#N)Cc2ccc(OCCN)c(c2)-c2cc1ccc2OCCN (some centres unmarked) [Compound 481]
- IC50 [1]: 1.2 nM
- MIC [2, 6]: 0.0078 µg/mL (≈ 0.00907 µM)
- MIC [4, 7]: 0.25 µg/mL (≈ 0.291 µM)
- MIC [5, 8]: 0.047 µg/mL (≈ 0.0546 µM)

SMILES: C[C@@H]1NC(=O)[C@@H](N(C)C(=O)[C@H](CCCCN)NC(=O)c2ccc(-c3ccc(Cl)cc3)cc2)c2ccc(OCCN)c(c2)-c2cc(ccc2OCCN)C[C@@H](C(=O)NCC#N)NC1=O [Compound 482]
- IC50 [1]: 1.6 nM
- MIC [2, 6]: 0.13 µg/mL (≈ 0.148 µM)
- MIC [4, 9]: 16 µg/mL (≈ 18.2 µM)
- MIC [5, 10]: 0.13 µg/mL (≈ 0.148 µM)

SMILES: C[C@@H]1NC(=O)[C@@H](N(C)C(=O)[C@H](CCCCN)NC(=O)c2ccc(-c3ccc(Cl)cc3)cc2)c2ccc(OCCN)c(c2)-c2cc(ccc2OCCN)C[C@@H](C(=O)N[C@@H](C)C#N)NC1=O [Compound 483]
- IC50 [1]: 6.8 nM
- MIC [2, 6]: 0.5 µg/mL (≈ 0.559 µM)
- MIC [4, 9]: 48 µg/mL (≈ 53.7 µM)
- MIC [5, 10]: 2 µg/mL (≈ 2.24 µM)

SMILES: CCCCCCCCCCCC(=O)N[C@@H](C[C@@H]1CCCN1)C(=O)N(C)[C@@H]1C(=O)N[C@@H](C)C(=O)N[C@H](C(=O)NCC#N)Cc2ccc(OCCN)c(c2)-c2cc1ccc2OCCN [Compound 484]
- IC50 [1]: 1 nM
- MIC [2, 6]: 0.063 µg/mL (≈ 0.0732 µM)
- MIC [4, 7]: 8 µg/mL (≈ 9.3 µM)
- MIC [5, 8]: 0.063 µg/mL (≈ 0.0732 µM)

SMILES: CCCCc1ccc(-c2ccc(C(=O)N[C@@H](CCCCN)C(=O)N(C)[C@@H]3C(=O)N[C@@H](C)C(=O)N[C@H](C(=O)NC4(C#N)CC4)Cc4ccc(OCCN)c(c4)-c4cc3ccc4OCCN)cc2)cc1 [Compound 494]
- IC50 [1]: 2.1 nM
- MIC [2, 6]: 0.5 µg/mL (≈ 0.539 µM)
- MIC [4, 7]: 16 µg/mL (≈ 17.2 µM)
- MIC [5, 8]: 1 µg/mL (≈ 1.08 µM)

SMILES: CCCCc1ccc(-c2ccc(C(=O)N[C@@H](CCCCN)C(=O)N(C)[C@@H]3C(=O)N[C@@H](C)C(=O)N[C@H](C(=O)NC4(C#N)CC4)Cc4ccc(O)c(c4)-c4cc3ccc4OCCN)cc2)cc1 [Compound 495]
- IC50 [1]: 20 nM
- MIC [2, 6]: 1 µg/mL (≈ 1.13 µM)
- MIC [4, 7]: 16 µg/mL (≈ 18.1 µM)
- MIC [5, 8]: 3 µg/mL (≈ 3.39 µM)

SMILES: CCCCc1ccc(-c2ccc(C(=O)N[C@@H](CCCCN)C(=O)N(C)[C@@H]3C(=O)N[C@@H](C)C(=O)N[C@H](C(=O)NC(C)(C)C#N)Cc4ccc(OCCN)c(c4)-c4cc3ccc4OCCN)cc2)cc1 [Compound 496]
- IC50 [1]: 17 nM
- MIC [2, 6]: 0.5 µg/mL (≈ 0.538 µM)
- MIC [4, 7]: 16 µg/mL (≈ 17.2 µM)
- MIC [5, 8]: 3 µg/mL (≈ 3.23 µM)

SMILES: CCCCc1ccc(-c2ccc(C(=O)N[C@@H](CCCN)C(=O)N(C)[C@@H]3C(=O)N[C@@H](C)C(=O)N[C@H](C(=O)N4CC4C#N)Cc4ccc(OCCN)c(c4)-c4cc3ccc4OCCN)cc2)cc1 (some centres unmarked) [Compound 520]
- IC50 [1]: 0.73 nM
- MIC ([2]; read-out: MIC (μg/mL) E. coli IMP): 0.19 µg/mL (≈ 0.211 µM)
- MIC ([4]; read-out: MIC (μg/mL) E. coli): 6 µg/mL (≈ 6.67 µM)
- MIC ([5]; read-out: MIC (μg/mL) S. aureus): 0.38 µg/mL (≈ 0.422 µM)
